Test results taken from patent EP0306597B2, “Antiviral nucleosides” (THE WELLCOME FOUNDATION LIMITED, priority 1985, dated 1986).

Columns and labels:
HTLV-I = experiment: In vitro replication of HTLV-I; type: cell-based; conditions: concentrations as low as
AIDV [1] = experiment: AIDV infection of H9 human lymphoblastoid cell-line; type: cell-based; conditions: concentrations as low as; up to 20 hours after infection
AIDV [2] = type: cell-based; conditions: same cell-line transformed by HTLV-I and super-infected with AIDV
vaccinia = conditions: De Clerq et al.; cited from earlier work
[3] = system: Rauscher Murine Leukaemia Virus; experiment: Mouse model of retrovirus-induced malignancy (splenomegaly); type: in vivo
[4] = system: varicella zoster virus (VZV); conditions: De Clerq et al.; cited from earlier work
AIDV [5] = experiment: AIDV infection of U937 cells, PHA-stimulated white blood cells and cultured peripheral blood lymphocytes; type: cell-based
[6] = system: Friend Leukaemia Virus (FLV); conditions: cited from earlier work
AIDV [7] = type: cell-based
HSVI = conditions: De Clerq et al.; cited from earlier work
[8] = biological target: T1, AIDV reverse transcriptase (Human immunodeficiency virus type 1 group M subtype B, UniProt P04585); experiment: Inhibition of purified AIDV reverse transcriptase; type: biochemical; conditions: purified enzyme; for activity of AIDV reverse transcriptase: in vitro
T1 construct: purified AIDV reverse transcriptase
Description: This property is both unusual and valuable for the treatment and prophylaxis of CNS infections caused by human retroviruses.

[9] = system: avian myeloblastosis virus and Moloney murine leukaemia virus; experiment: Chain termination of reverse transcription; type: biochemical; conditions: evidenced by effect on avian myeloblastosis virus and Moloney murine leukaemia virus
human DNA polymerase = experiment: Effect on human DNA polymerase activity; type: biochemical; conditions: in vitro

SMILES | conversion in vivo by cellular enzymes | concentration inhibiting the in vitro replication of HTLV-I (HTLV-I) | concentration effectively preventing infection of the H9 human lymphoblastoid cell-line by AIDV (AIDV [1]) | Cytopathic effects (AIDV [2]) | activity against vaccinia (vaccinia) | splenomegaly caused by intravenously administered Rauscher Murine Leukaemia Virus [3] | activity against varicella zoster virus (VZV) [4] | AIDV infection of PHA-stimulated white blood cells (AIDV [5]; PHA-stimulated white blood cells) | AIDV infection of U937 human lymphoblastoid cells (AIDV [5]; U937 human lymphoblastoid cells) | AIDV infection of cultured peripheral blood lymphocytes (AIDV [5]; cultured peripheral blood lymphocytes) | cellular toxicity [6] | formation of A-type particles of FLV complex ([6]; in vitro, Krieg et al.) | release of C-type particles of FLV complex ([6]; in vitro, Krieg et al.) | decrease in cells (AIDV [7]) | activity against HSVI (HSVI) | mechanism of inhibition of AIDV reverse transcriptase [8] | activity of AIDV reverse transcriptase [8] | activity of AIDV reverse transcriptase ([8]; […]) | chain termination in the reverse transcription of AIDV [9] | effect on human DNA polymerase activity (human DNA polymerase)
Cc1cn([C@H]2C[C@H](N=[N+]=[N-])[C@@H](CO)O2)c(=O)[nH]c1=O | converted in vivo, by the action of cellular enzymes into the 5'-monophosphate | 0.8 µg/mL | 0.013 µg/mL | completely blocked | no appreciable activity | prevented | no appreciable activity | prevented at similarly low concentrations | prevented at similarly low concentrations | prevented at similarly low concentrations | lack of cellular toxicity | increased | affected | no decrease | no appreciable activity | – | – | – | – | –
Cc1cn([C@H]2C[C@H](N=[N+]=[N-])[C@@H](COP(=O)(O)O)O2)c(=O)[nH]c1=O [Example 13] | further phosphorylated by other enzymes to form the triphosphate via the diphosphate | – | – | – | – | – | – | – | – | – | – | – | – | – | – | – | – | – | – | –
Cc1cn([C@H]2C[C@H](N=[N+]=[N-])[C@@H](COP(=O)(O)OP(=O)(O)OP(=O)(O)O)O2)c(=O)[nH]c1=O [3'-Azido-3'-deoxythymidine-5'-triphosphate] | – | – | – | – | – | – | – | – | – | – | – | – | – | – | – | competitive inhibition | blocked | inhibits | effective chain terminator | negligible effect
